Legend:
[1] = biological target: T1, Endonuclease III-like protein 1 (Homo sapiens) (UniProt P78549); conditions: Hit No;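 further: enzyme assay tracking NTHL1 cutting and release of a quenched double-stranded DNA oligo substrate, read as fluorescence at 594 nm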
T1 sequence (whole entry): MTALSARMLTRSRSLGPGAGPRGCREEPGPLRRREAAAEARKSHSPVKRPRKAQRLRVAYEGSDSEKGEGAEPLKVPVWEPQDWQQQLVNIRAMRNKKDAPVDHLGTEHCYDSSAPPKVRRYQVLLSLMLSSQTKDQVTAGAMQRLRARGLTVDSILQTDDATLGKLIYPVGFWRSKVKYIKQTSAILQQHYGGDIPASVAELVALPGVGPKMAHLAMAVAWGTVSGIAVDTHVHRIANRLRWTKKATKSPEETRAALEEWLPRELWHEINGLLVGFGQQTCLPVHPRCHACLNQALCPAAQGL

[2] = biological target: N-glycosylase/DNA lyase (Homo sapiens) (UniProt O15527); conditions: Compound Concentration 10.0 uM, Hit No;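 further: OGG1 cleavage of a quenched duplex DNA oligonucleotide, coupled to APE1 for strand incision, read as fluorescence at 594 nm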
Description: Inhibition of OGG1 by quantifying inhibition of OGG1-mediated cleavage and dissociation of quenched duplex DNA oligonucleotides, measured as fluorescence at 594 nm. To generate a functional strand incision and increase turn-over this assay is coupled to APE1.

[3] = biological target: Methyl-CpG-binding domain protein 4 (Homo sapiens) (UniProt O95243); conditions: Hit No;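 further: MBD4 activity read as fluorescence at 594 nm from cleavage and release of a quenched duplex DNA oligonucleotide, with APE1 coupled to incise the strand and raise turnover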
[4] = biological target: T2, Endonuclease 8-like 2 (Homo sapiens) (UniProt Q969S2); conditions: Compound Concentration 10.0 uM, Hit No;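 further: fluorescence at 594 nm reports NEIL2 cutting and release of a quenched double-stranded DNA oligo substrate, reduced signal read as inhibition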
T2 sequence (whole entry): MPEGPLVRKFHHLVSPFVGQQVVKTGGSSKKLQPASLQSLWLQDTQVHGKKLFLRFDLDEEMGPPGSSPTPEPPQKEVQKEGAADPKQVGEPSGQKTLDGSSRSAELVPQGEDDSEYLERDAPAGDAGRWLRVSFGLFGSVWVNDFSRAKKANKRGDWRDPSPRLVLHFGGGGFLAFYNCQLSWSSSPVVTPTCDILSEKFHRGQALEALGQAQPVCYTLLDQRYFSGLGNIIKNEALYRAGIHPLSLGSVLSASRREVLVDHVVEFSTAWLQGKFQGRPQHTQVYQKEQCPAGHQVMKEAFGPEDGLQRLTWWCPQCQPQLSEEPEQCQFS
Description: Inhibition of NEIL2 by quantifying inhibition of NEIL2-mediated cleavage and dissociation of quenched duplex DNA oligonucleotides, measured as fluorescence at 594 nm.

[5] = biological target: Uracil-DNA glycosylase (Homo sapiens) (UniProt P13051); conditions: Hit No;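 further: UNG excision on a quenched double-stranded DNA oligo probe, with APE1 added for strand incision and turnover, read as fluorescence at 594 nm as strands separate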
[6] = biological target: Endonuclease 8-like 1 (Homo sapiens) (UniProt Q96FI4); conditions: Hit No;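 further: fluorescence at 594 nm from quenched duplex DNA oligonucleotides released by NEIL1 cleavage and strand separation, reported as reduction of this enzyme activity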
[7] = biological target: G/T mismatch-specific thymine DNA glycosylase (Homo sapiens) (UniProt Q13569); conditions: Hit No;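 further: human TDG cleavage of quenched duplex DNA oligonucleotides coupled to APE1, strand release read as fluorescence at 594 nm, inhibition of TDG activity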
[8] = biological target: T3, Single-strand selective monofunctional uracil DNA glycosylase (Homo sapiens) (UniProt Q53HV7); conditions: Hit No;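 further: enzymatic SMUG1 assay coupled with APE1, reading fluorescence at 594 nm released when a quenched double-stranded DNA oligonucleotide substrate is cleaved and separated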
T3 sequence (whole entry): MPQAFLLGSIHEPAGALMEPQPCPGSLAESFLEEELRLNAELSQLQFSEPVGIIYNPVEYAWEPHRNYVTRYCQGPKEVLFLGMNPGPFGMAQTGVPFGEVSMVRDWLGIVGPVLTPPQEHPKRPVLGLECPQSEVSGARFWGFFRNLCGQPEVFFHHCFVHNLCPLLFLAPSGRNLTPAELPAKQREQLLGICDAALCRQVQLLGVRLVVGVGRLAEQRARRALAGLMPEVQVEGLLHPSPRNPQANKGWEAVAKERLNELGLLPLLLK

G/T mismatch-specific thymine DNA glycosylase (Homo sapiens), sequence (Q13569 whole entry): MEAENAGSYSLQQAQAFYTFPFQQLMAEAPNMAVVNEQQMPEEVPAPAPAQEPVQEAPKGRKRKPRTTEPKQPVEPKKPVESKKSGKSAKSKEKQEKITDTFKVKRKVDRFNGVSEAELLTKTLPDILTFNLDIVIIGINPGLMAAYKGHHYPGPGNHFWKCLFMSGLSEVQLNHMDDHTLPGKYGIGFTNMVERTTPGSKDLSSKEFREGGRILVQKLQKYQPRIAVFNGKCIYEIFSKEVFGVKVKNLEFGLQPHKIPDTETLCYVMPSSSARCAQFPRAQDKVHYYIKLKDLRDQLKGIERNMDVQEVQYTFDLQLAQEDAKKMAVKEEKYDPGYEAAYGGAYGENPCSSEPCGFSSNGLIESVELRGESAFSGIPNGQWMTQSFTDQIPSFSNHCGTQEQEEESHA
Methyl-CpG-binding domain protein 4 (Homo sapiens), sequence (O95243 whole entry, the tested form may be a part): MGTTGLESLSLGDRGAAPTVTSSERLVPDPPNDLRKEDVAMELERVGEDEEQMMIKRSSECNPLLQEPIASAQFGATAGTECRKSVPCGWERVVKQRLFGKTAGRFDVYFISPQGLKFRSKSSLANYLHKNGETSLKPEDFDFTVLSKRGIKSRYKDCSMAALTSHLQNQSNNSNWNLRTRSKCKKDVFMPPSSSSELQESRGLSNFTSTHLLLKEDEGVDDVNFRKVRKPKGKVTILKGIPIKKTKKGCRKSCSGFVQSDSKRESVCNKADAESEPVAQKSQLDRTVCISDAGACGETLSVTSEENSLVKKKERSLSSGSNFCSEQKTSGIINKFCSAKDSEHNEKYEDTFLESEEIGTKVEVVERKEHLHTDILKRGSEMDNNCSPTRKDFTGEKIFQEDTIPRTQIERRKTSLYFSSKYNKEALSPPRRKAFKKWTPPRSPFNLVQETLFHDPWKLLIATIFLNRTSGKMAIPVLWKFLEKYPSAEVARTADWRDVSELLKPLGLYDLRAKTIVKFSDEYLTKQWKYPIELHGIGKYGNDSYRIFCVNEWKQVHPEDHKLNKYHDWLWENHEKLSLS
Endonuclease 8-like 1 (Homo sapiens), sequence (Q96FI4 whole entry): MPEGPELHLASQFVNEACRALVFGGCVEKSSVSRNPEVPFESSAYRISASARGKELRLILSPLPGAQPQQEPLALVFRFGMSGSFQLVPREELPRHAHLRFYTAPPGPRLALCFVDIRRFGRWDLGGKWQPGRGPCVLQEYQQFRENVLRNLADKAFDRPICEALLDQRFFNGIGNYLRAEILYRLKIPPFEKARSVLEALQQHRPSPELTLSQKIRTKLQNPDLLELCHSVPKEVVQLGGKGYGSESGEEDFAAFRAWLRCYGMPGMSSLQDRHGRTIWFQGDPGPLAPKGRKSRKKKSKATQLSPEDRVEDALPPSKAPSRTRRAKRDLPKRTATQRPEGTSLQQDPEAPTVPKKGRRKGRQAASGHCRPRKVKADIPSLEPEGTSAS
Uracil-DNA glycosylase (Homo sapiens), sequence (P13051 whole entry): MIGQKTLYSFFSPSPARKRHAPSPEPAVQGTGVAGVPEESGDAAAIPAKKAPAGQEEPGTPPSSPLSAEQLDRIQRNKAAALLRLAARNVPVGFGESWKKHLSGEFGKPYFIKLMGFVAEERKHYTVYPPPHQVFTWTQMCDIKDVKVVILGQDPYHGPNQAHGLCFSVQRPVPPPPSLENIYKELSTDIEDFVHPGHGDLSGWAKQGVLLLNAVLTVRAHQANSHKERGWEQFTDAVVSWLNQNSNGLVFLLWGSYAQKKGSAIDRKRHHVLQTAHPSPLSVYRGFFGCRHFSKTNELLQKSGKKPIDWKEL
N-glycosylase/DNA lyase (Homo sapiens), sequence (O15527 whole entry, the tested form may be a part): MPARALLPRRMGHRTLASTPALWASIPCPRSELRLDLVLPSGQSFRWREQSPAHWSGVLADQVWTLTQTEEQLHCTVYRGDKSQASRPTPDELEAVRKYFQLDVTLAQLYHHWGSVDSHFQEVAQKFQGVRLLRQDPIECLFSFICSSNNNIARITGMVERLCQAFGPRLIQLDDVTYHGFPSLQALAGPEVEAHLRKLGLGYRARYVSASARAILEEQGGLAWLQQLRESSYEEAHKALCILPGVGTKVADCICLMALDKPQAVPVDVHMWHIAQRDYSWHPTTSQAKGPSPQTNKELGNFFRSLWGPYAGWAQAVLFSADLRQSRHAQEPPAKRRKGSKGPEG

## N#CC1(c2ccccn2)CCN(Cc2cc(C(=O)O)c(=O)n3ccccc23)CC1
[1]; Compound Concentration 10.0 uM
  inhibition: -9.18%
[2]
  inhibition: -3.75%
[3]; Compound Concentration 10.0 uM
  inhibition: 93%
[4]
  inhibition: 0.531%
[5]; Compound Concentration 10.0 uM
  inhibition: 1.66%
[6]; Compound Concentration 10.0 uM
  inhibition: -0.139%
[7]; Compound Concentration 10.0 uM
  inhibition: 45.8%

## C[C@@H]1CN(c2nccc(Nc3ccc4c(c3)n(CCC(C)(C)O)c(=O)n4C)n2)C[C@H](C)C1(F)F
[1]; Compound Concentration 10.0 uM
  inhibition: -0.63%
[8]; Compound Concentration 10.0 uM
  inhibition: 7.55%
[3]; Compound Concentration 10.0 uM
  inhibition: 56.2%
[4]
  inhibition: -8.14%
[5]; Compound Concentration 10.0 uM
  inhibition: 5.07%
[6]; Compound Concentration 10.0 uM
  inhibition: -3.77%
[7]; Compound Concentration 10.0 uM
  inhibition: 98.6%

## CCOc1cc(N2CCC(O)CC2)ccc1Nc1ncc2c(n1)N(C1CCCC1)CCC(=O)N2C
[1]; Compound Concentration 10.0 uM
  inhibition: -6.19%
[8]; Compound Concentration 10.0 uM
  inhibition: 12.4%
[3]; Compound Concentration 10.0 uM
  inhibition: -5.19%
[5]; Compound Concentration 10.0 uM
  inhibition: -0.0214%
[6]; Compound Concentration 10.0 uM
  inhibition: -5.28%
[7]; Compound Concentration 10.0 uM
  inhibition: 36.7%

## CO[C@@H](C)c1c(Nc2ccc([C@@H](N(C)C(=O)C3CCS(=O)(=O)CC3)C(F)(F)F)cc2)cnc2cc(Cl)nn12
[1]; Compound Concentration 10.0 uM
  inhibition: -9.83%
[8]; Compound Concentration 10.0 uM
  inhibition: 13.4%
[3]; Compound Concentration 10.0 uM
  inhibition: 93.9%
[4]
  inhibition: 0.0213%
[5]; Compound Concentration 10.0 uM
  inhibition: 0.795%
[6]; Compound Concentration 10.0 uM
  inhibition: -6.35%
[7]; Compound Concentration 10.0 uM
  inhibition: 42.7%

## CCC1(C2=NCCN2)Cc2ccccc2O1 (centres undefined)
[1]; Compound Concentration 10.0 uM
  inhibition: 1.19%
[2]
  inhibition: -0.183%
[3]; Compound Concentration 10.0 uM
  inhibition: 3.23%
[4]
  inhibition: -5.22%
[5]; Compound Concentration 10.0 uM
  inhibition: -0.713%
[6]; Compound Concentration 10.0 uM
  inhibition: -9.99%
[7]; Compound Concentration 10.0 uM
  inhibition: 2.85%

## COc1ccc([C@@H]2Sc3ccccc3N(CCN(C)C)C(=O)[C@@H]2OC(C)=O)cc1
[1]; Compound Concentration 10.0 uM
  inhibition: 30.3%
[8]; Compound Concentration 10.0 uM
  inhibition: 0.325%
[3]; Compound Concentration 10.0 uM
  inhibition: -5.04%
[5]; Compound Concentration 10.0 uM
  inhibition: -4.36%
[6]; Compound Concentration 10.0 uM
  inhibition: 3.71%
[7]; Compound Concentration 10.0 uM
  inhibition: -1.73%

## CCOc1cn(-c2ccc(F)cc2C)nc1C(=O)Nc1ccc(Oc2ccnc3cc(OC)c(OC)cc23)c(F)c1
[1]; Compound Concentration 1.0 uM
  inhibition: -2%
[8]; Compound Concentration 1.0 uM
  inhibition: 21.7%
[3]; Compound Concentration 1.0 uM
  inhibition: 31.6%
[5]; Compound Concentration 1.0 uM
  inhibition: 1.39%
[6]; Compound Concentration 1.0 uM
  inhibition: 0.138%
[7]; Compound Concentration 1.0 uM
  inhibition: 46.5%

## C[C@H](NC(=O)c1cnc2n1[C@](C)(Cc1ccc(C#N)cc1)C(=O)N2c1cc(Cl)c(F)c(Cl)c1)C(=O)NC1(c2ccccn2)CC1
[1]; Compound Concentration 10.0 uM
  inhibition: -4.57%
[8]; Compound Concentration 10.0 uM
  inhibition: 22.8%
[3]; Compound Concentration 10.0 uM
  inhibition: 60.9%
[4]
  inhibition: -4.83%
[5]; Compound Concentration 10.0 uM
  inhibition: 7.8%
[6]; Compound Concentration 10.0 uM
  inhibition: 5.16%
[7]; Compound Concentration 10.0 uM
  inhibition: 52.5%

## CN(C)C(=O)c1sc2nc(N3CCC(S(C)(=O)=O)CC3)cc(C(F)(F)F)c2c1N
[1]; Compound Concentration 10.0 uM
  inhibition: 2.05%
[2]
  inhibition: -1.24%
[8]; Compound Concentration 10.0 uM
  inhibition: -2.07%
[3]; Compound Concentration 10.0 uM
  inhibition: 1.76%
[6]; Compound Concentration 10.0 uM
  inhibition: -3.24%
[7]; Compound Concentration 10.0 uM
  inhibition: -5.21%

## COc1ccnc(N2CCC3(CCCN(Cc4c[nH]c5ccccc45)C3=O)CC2)n1
[1]; Compound Concentration 10.0 uM
  inhibition: 6.32%
[2]
  inhibition: -2.11%
[8]; Compound Concentration 10.0 uM
  inhibition: 15.5%
[3]; Compound Concentration 10.0 uM
  inhibition: -0.547%
[4]
  inhibition: -0.983%
[6]; Compound Concentration 10.0 uM
  inhibition: 9.14%
[7]; Compound Concentration 10.0 uM
  inhibition: 4.73%

## CC1=C(C(=O)Nc2cc3cn[nH]c3cc2F)C(c2ccc(C(F)(F)F)cc2)CC(=O)N1 (centres undefined)
[1]; Compound Concentration 10.0 uM
  inhibition: -2.7%
[8]; Compound Concentration 10.0 uM
  inhibition: 22.4%
[3]; Compound Concentration 10.0 uM
  inhibition: 18%
[4]
  inhibition: 3.2%
[5]; Compound Concentration 10.0 uM
  inhibition: 7.25%
[6]; Compound Concentration 10.0 uM
  inhibition: 4.1%
[7]; Compound Concentration 10.0 uM
  inhibition: 34.3%

## Cc1cc2c(-c3ccco3)cnc(N[C@@H]3CCN(C)C[C@H]3C(=O)NC3CCCCC3)c2[nH]c1=O
[1]; Compound Concentration 10.0 uM
  inhibition: -9.18%
[3]; Compound Concentration 10.0 uM
  inhibition: 58.5%
[5]; Compound Concentration 10.0 uM
  inhibition: -3.36%
[7]; Compound Concentration 10.0 uM
  inhibition: 33.3%

## COc1cc(C(=O)O)ncc1C#Cc1ccccc1NS(=O)(=O)c1cccc2c(N(C)C)ccnc12
[1]; Compound Concentration 10.0 uM
  inhibition: -8.52%
[8]; Compound Concentration 10.0 uM
  inhibition: 6.29%
[3]; Compound Concentration 10.0 uM
  inhibition: 66.6%
[4]
  inhibition: 6.91%
[5]; Compound Concentration 10.0 uM
  inhibition: 2.52%
[6]; Compound Concentration 10.0 uM
  inhibition: -0.29%
[7]; Compound Concentration 10.0 uM
  inhibition: 46.3%

## Cn1cc(-c2ccc3occ(-c4cccc(-c5ccncc5)c4)c3n2)cn1
[1]; Compound Concentration 10.0 uM
  inhibition: -8.98%
[8]; Compound Concentration 10.0 uM
  inhibition: 13.1%
[3]; Compound Concentration 10.0 uM
  inhibition: -1.5%
[4]
  inhibition: -5.69%
[5]; Compound Concentration 10.0 uM
  inhibition: -1.77%
[6]; Compound Concentration 10.0 uM
  inhibition: -1.18%
[7]; Compound Concentration 10.0 uM
  inhibition: 42.6%

## Cn1ncnc1COc1nn2c(-c3c(F)cccc3F)nnc2cc1C1CCC1
[1]; Compound Concentration 10.0 uM
  inhibition: 22.9%
[8]; Compound Concentration 10.0 uM
  inhibition: 1.23%
[3]; Compound Concentration 10.0 uM
  inhibition: -5.71%
[4]
  inhibition: -3.41%
[5]; Compound Concentration 10.0 uM
  inhibition: -7.24%
[6]; Compound Concentration 10.0 uM
  inhibition: 7.71%
[7]; Compound Concentration 10.0 uM
  inhibition: 15.4%

## CC(C)c1c(NC(=O)Nc2ccc(Cl)cc2)c(=O)n(-c2ccccc2)n1C
[1]; Compound Concentration 10.0 uM
  inhibition: 12.9%
[2]
  inhibition: -7%
[8]; Compound Concentration 10.0 uM
  inhibition: -6.14%
[3]; Compound Concentration 10.0 uM
  inhibition: 31.2%
[4]
  inhibition: -6.97%
[6]; Compound Concentration 10.0 uM
  inhibition: 4.99%
[7]; Compound Concentration 10.0 uM
  inhibition: -4.69%

## O=C1O[C@]2(CC[C@H](C(=O)Nc3ccn(-c4ccccc4F)n3)CC2)c2cnccc21
[1]; Compound Concentration 10.0 uM
  inhibition: -1.74%
[2]
  inhibition: -9.12%
[8]; Compound Concentration 10.0 uM
  inhibition: 3.16%
[4]
  inhibition: -7.47%
[5]; Compound Concentration 10.0 uM
  inhibition: -8.76%
[6]; Compound Concentration 10.0 uM
  inhibition: -8.51%
[7]; Compound Concentration 10.0 uM
  inhibition: 1.4%

## CNC[C@H](O)c1cccc(O)c1
[1]; Compound Concentration 10.0 uM
  inhibition: -9.8%
[2]
  inhibition: -3.42%
[8]; Compound Concentration 10.0 uM
  inhibition: -2.99%
[3]; Compound Concentration 10.0 uM
  inhibition: -3.74%
[4]
  inhibition: 7.25%
[6]; Compound Concentration 10.0 uM
  inhibition: -4.8%
[7]; Compound Concentration 10.0 uM
  inhibition: -5.83%

## C[C@H]1[C@H]2CC[C@H]3[C@@H]4CC=C5C[C@@H](N(C)C)CC[C@]5(C)[C@H]4CC[C@]23CN1C
[1]; Compound Concentration 10.0 uM
  inhibition: 7.05%
[2]
  inhibition: -2.15%
[8]; Compound Concentration 10.0 uM
  inhibition: 4.86%
[4]
  inhibition: -7.72%
[5]; Compound Concentration 10.0 uM
  inhibition: -8.6%
[6]; Compound Concentration 10.0 uM
  inhibition: -0.649%
[7]; Compound Concentration 10.0 uM
  inhibition: 5.99%

## CN(C)C(=O)C(CCN1CCC(O)(c2ccc(Cl)cc2)CC1)(c1ccccc1)c1ccccc1
[1]; Compound Concentration 10.0 uM
  inhibition: 28.3%
[2]
  inhibition: -5.28%
[8]; Compound Concentration 10.0 uM
  inhibition: -1.44%
[4]
  inhibition: 7.75%
[5]; Compound Concentration 10.0 uM
  inhibition: -5.39%
[6]; Compound Concentration 10.0 uM
  inhibition: 7.8%
[7]; Compound Concentration 10.0 uM
  inhibition: 5.3%

## OCCN1CCN(CCCN2c3ccccc3Sc3ccc(Cl)cc32)CC1
[1]; Compound Concentration 10.0 uM
  inhibition: 3.39%
[2]
  inhibition: -8.6%
[8]; Compound Concentration 10.0 uM
  inhibition: -0.808%
[4]
  inhibition: 12.5%
[5]; Compound Concentration 10.0 uM
  inhibition: -5.33%
[6]; Compound Concentration 10.0 uM
  inhibition: 17.1%
[7]; Compound Concentration 10.0 uM
  inhibition: 3.7%

## COc1ncc(F)cc1CNc1ccc(Cc2c[nH]c3ncc(C)cc23)c(F)n1
[1]; Compound Concentration 10.0 uM
  inhibition: -7.58%
[2]
  inhibition: 5.69%
[8]; Compound Concentration 10.0 uM
  inhibition: 18.6%
[4]
  inhibition: 2.39%
[5]; Compound Concentration 10.0 uM
  inhibition: 6.92%
[6]; Compound Concentration 10.0 uM
  inhibition: 1.33%
[7]; Compound Concentration 10.0 uM
  inhibition: 37.9%

## CN(C(=O)Cc1ccc(Cl)c(Cl)c1)C(CN1CCCC1)c1cccc(OCC(=O)O)c1 (centres undefined)
[1]; Compound Concentration 10.0 uM
  inhibition: 13.7%
[2]
  inhibition: -6.71%
[8]; Compound Concentration 10.0 uM
  inhibition: -2.65%
[4]
  inhibition: -9.22%
[5]; Compound Concentration 10.0 uM
  inhibition: -7.78%
[6]; Compound Concentration 10.0 uM
  inhibition: -0.5%
[7]; Compound Concentration 10.0 uM
  inhibition: -1.52%

— ChEMBL document CHEMBL5665443, “Enzyme Inhibitor Single Concentration assay results for EUbOPEN Chemogenomics Library” (2024)
